Reference: patent publication US6413228B1, “Devices, methods and systems for collecting material from a breast duct” (Pro Duct Health, Inc., priority 1998, dated 2002)

Tested on: breast ducts of live rabbits
Test: Mannitol solution introduced into breast ducts of live rabbit: ductal fluid collection
Assay type: in vivo, New Zealand rabbit
Details: for recovery (out-flow liquid collected from duct): about an hour after injection
Description: The objective of these experiments was to test the effects of the introduction of a solution containing mannitol on the secretion of fluid from the breast ducts of live rabbits. New Zealand rabbit #3242, female, from Kraelik Farm in California weighing 4.1 kg was used. The rabbit was anesthetized by injection of 200 mg of ketamine and 40 mg of Zylazine. A second injection of 100 mg of ketamine and 20 mg of xylazine was made 2 hours later to maintain the rabbit in a deep plane of anesthesia. The thorax and abdomen of the rabbit was shaved to expose the breasts and nipples.
A single lumen blue color catheter (O.D. 0.23″ ID 0.017; O.D. at the tip 0.011″-0.012″) was inserted into a duct in each nipple. Three nipples were tested, and 2 ducts per nipple were accessed with a catheter. The nipples were identified A, B, and C.
A duct on nipple A was injected with 0.20 ml of a 12.5% solution of D-Mannitol in H2O (available from Sigma Chemicals, St. Louis, Mo. cat# M-9546 lot 6710402: C6H14O6 FW 182.2) with a single catheter. The control duct on nipple A was injected with 0.20 ml of phosphate buffered saline (PBS). A microfuge tube was attached to the end of each catheter to collect out flow liquid. Ten minutes later 0.2 ml of a 12.5% solution of D-Mannitol in H2O was injected into the first duct and the second duct was injected with 0.20 ml of phosphate buffered saline, for a total volume injected in each duct of 0.40 ml.
A duct on nipple B was injected with 0.5 ml of a 12.5% solution of D-Mannitol in H2O with a single catheter. The control duct on nipple B was injected with […] of phosphate buffered saline (PBS). A microfuge tube was attached to the end of each catheter to collect out-flow liquid.
A duct on nipple C was injected with 0.7 ml of a 12.5% solution of D-Mannitol in H2O with a single catheter. The control duct on nipple C was injected with 0.70 ml of phosphate buffered saline (PBS). A microfuge tube was attached to the end of each catheter to collect out flow liquid.
About an hour after the fluid containing mannitol or PBS was injected into the ducts via the catheters, the microfuge tubes were checked for whether any fluid was returned.
Davidson green dye (1 ul) was added to each microfuge tube containing fluid for the purpose of taking a picture. The rabbit was euthanized by IV injection of supersaturated KC1. PBS (1.5 ul) was added to each collection. The cells were spun onto Shandon coated slide using megafunnel and cytospin-3 machine (Shandon, Inc. located in Pittsburgh, Pa.) at a speed of 1500/per minute for 15 minutes. The cells were fixed on the slide in 95% ethanol for 10 minutes. The cells were stained using Hematoxylin and Eosin (HE) method of cytology of collected fluid.

## OC[C@@H](O)[C@@H](O)[C@H](O)[C@H](O)CO [mannitol, D-Mannitol]
Ducts injected with mannitol solution (PBS control: 1 out of 3)
  ducts from which fluid can be collected: three out of three
Nipple A, duct A1, 0.4 ml mannitol 12.5% in H2O injected intraductally (2 x 0.2 ml)
  recovery (out-flow liquid collected from duct): 310 ul liquid
Nipple B, duct B1, 0.5 ml mannitol 12.5% in H2O injected intraductally
  recovery (out-flow liquid collected from duct): 490 ul liquid
Nipple C, duct C1, 0.7 ml mannitol 12.5% in H2O injected intraductally
  recovery (out-flow liquid collected from duct): 280 ul liquid
